What was measured:
Assay in all cases: relative viability (nuclei count vs DMSO), 5 days (fraction); higher = more cells survive
Vandetanib + Vorinostat = compound: COc1cc2/c(=N/c3ccc(Br)cc3F)nc[nH]c2cc1OCC1CCN(C)CC1 [Vandetanib] + O=C(CCCCCCC(=O)Nc1ccccc1)NO [Vorinostat] (partner 1 µM)
In short: (§1)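 For relative viability, nuclei counts in treated wells were divided by those in vehicle wells. Lung cancer cell lines had been pin-tool dosed in 1536-well plates the day after seeding and cultured for 5 days, then fixed and stained in one step (final 0.05% Triton X-100, 1% formaldehyde, 1 ug/ml Hoechst) and imaged at 4×. Doses were one drug alone or a fixed anchor-drug dose plus five library-drug doses (not always all listed) in √10 steps, and values are duplicate-plate medians.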

CUDC-101 + Navitoclax = compound: C#Cc1cccc(Nc2ncnc3cc(OC)c(OCCCCCCC(=O)NO)cc23)c1 [CUDC-101] + CC1(C)CCC(c2ccc(Cl)cc2)=C(CN2CCN(c3ccc(C(=O)NS(=O)(=O)c4ccc(N[C@H](CCN5CCOCC5)CSc5ccccc5)c(S(=O)(=O)C(F)(F)F)c4)cc3)CC2)C1 [Navitoclax] (partner 0.5 µM)
In short: as §1

NVP-TAE684 + OSI-027 = compound: COc1cc(N2CCC(N3CCN(C)CC3)CC2)ccc1Nc1ncc(Cl)c(Nc2ccccc2S(=O)(=O)C(C)C)n1 [NVP-TAE684] + COc1cccc2cc(-c3nc([C@H]4CC[C@H](C(=O)O)CC4)n4ncnc(N)c34)[nH]c12 [OSI-027] (partner 0.5 µM)
In short: as §1

[1] = compound: C1=CC=C2C(=C1)N=C(S2)C(C#N)C3=NC(=NC=C3)NCCC4=CN=CC=C4 + CS(=O)(=O)CCNCc1ccc(-c2ccc3ncnc(Nc4ccc(OCc5cccc(F)c5)c(Cl)c4)c3c2)o1 [Lapatinib] (partner 2 µM)
In short: as §1

Cell Line UMC-11 has a relative viability (Vandetanib + Vorinostat; first compound 0.02 µM) of 0.43, a relative viability (Vandetanib + Vorinostat; first compound 0.06325 µM) of 0.373 and a relative viability (Vandetanib + Vorinostat; first compound 0.2 µM) of 0.399. It also gave a relative viability (Vandetanib + Vorinostat; first compound 0.6325 µM) of 0.342, a relative viability (Vandetanib + Vorinostat; first compound 2 µM) of 0.364 and a relative viability (CUDC-101 + Navitoclax; first compound 0.01 µM) of 0.313. The relative viability (CUDC-101 + Navitoclax; first compound 0.03162 µM) was 0.302, the relative viability (CUDC-101 + Navitoclax; first compound 0.1 µM) was 0.257 and the relative viability (CUDC-101 + Navitoclax; first compound 0.3162 µM) was 0.225. For the same cell line, the relative viability (CUDC-101 + Navitoclax; first compound 1 µM) was 0.0766, the relative viability (NVP-TAE684 + OSI-027; first compound 0.2 µM) was 0.412 and the relative viability (NVP-TAE684 + OSI-027; first compound 0.6325 µM) was 0.438. It also gave a relative viability (NVP-TAE684 + OSI-027; first compound 2 µM) of 0.282, a relative viability ([1]; first compound 0.005 µM) of 0.902 and a relative viability ([1]; first compound 0.01581 µM) of 0.877. For the same cell line, the relative viability ([1]; first compound 0.05 µM) was 0.843, the relative viability ([1]; first compound 0.1581 µM) was 1.59 and the relative viability ([1]; first compound 0.5 µM) was 0.901.

From the supplement of paper PMC10307832
